This is an account of results in paper PMC3974779, “Pterostilbene-Isothiocyanate Conjugate Suppresses Growth of Prostate Cancer Cells Irrespective of Androgen Receptor Status” (PLoS ONE, 2014).

Assay [1] deals with LNCaP cells. Kind of assay: Annexin-V/PI apoptosis assay by flow cytometry. The note with it: 24 h. The class given is cell-based, human. The procedure:
(§1) Cell cycle distribution and Annexin V/Propidium iodide (PI) positive cells were analyzed using flow cytometry. In brief, first the cells were seeded and treated with 0, 10, 20 and 40 μM conjugate in complete medium for 24 h. This was followed by trypsinizing and fixing in 70% ethanol, and finally washing with PBS. Subsequently, the cells were treated with RNase A (50 μg/ml), stained with PI (50 μg/ml) and incubated in the dark for 30 min at room temperature and analyzed by flow cytometry for cell cycle distribution. For apoptosis, the conjugate treated cells were stained with Alexa-Fluor 488-conjugated Annexin-V using the Vybrant-Apoptosis Assay Kit from Invitrogen (USA) as per the manufacturer’s protocol. The stained cells were then analyzed by fluorescence activated cell sorting (FACS Calibur, BD Biosciences, San Jose, CA, USA) and the data were standardized using Cell Quest 3.3 software.

A further assay concerns PC-3 cells. Description: Annexin-V/PI apoptosis assay by flow cytometry. The class given is cell-based, human. The note with it: 24 h. The protocol: as §1
(In general: Flow cytometry measures light scatter and fluorescence of single cells or particles in a stream.)

Assay [2] deals with caspase-3 activity in LNCaP cells. Description: Caspase colorimetric protease assay. The class given is cell-based, human. The note with it: 24 h. The procedure:
(§2) Caspase activity was determined using ApoTarget caspase colorimetric protease assay sampler kit (KHZ1001; Invitrogen) according to the manufacturer’s instructions. Briefly, both the PCa cells were treated with increasing doses of conjugate and RESV for 24 h. The cells were then collected, washed in PBS, and lysed in 50 μl lysis buffer on ice for 10 min. After centrifugation, the supernatant containing 150 μg proteins were incubated with 200 μM of caspase-3 (Ac-DEVD-pNA), caspase-8 (Ac-IETD-pNA) and caspase-9 (Ac-LEHD-pNA) substrates respectively in reaction buffer at 37°C for 1 h in 96 well flat bottom plate. Levels of released pNA were then measured at 405 nm wavelength with ELISA plate reader (Fluostar optima, BMG Labtech, Germany). The fold-increase in caspase-3, -8, and -9 activities were determined by direct comparison to the level of un-induced control. For the caspase inhibitor assay, cells were pretreated with a synthetic pan-caspase inhibitor (Z-VAD-FMK), caspase-8 inhibitor (Z-IETD-FMK) and caspase-9 inhibitor (Z-LEHD-FMK) for 1 h before the addition of conjugate and the cell death were analyzed by MTT assay as discussed earlier.

In assay [3] the test system is caspase-3 activity in PC-3 cells. Description: Caspase colorimetric protease assay. The conditions noted are these: PC-3, 10, 20 and 40 μM, 24 h. The class given is cell-based, human. The procedure: as §2
In assay [4] the test system is caspase-8 activity in LNCaP cells. Description: Caspase colorimetric protease assay. The conditions noted are these: 24 h. In kind it is cell-based, human. The procedure:
as §2

Assay [5] relates to caspase-8 activity in PC-3 cells. Kind of assay: Caspase colorimetric protease assay. In kind it is cell-based, human. The conditions noted are these: PC-3, 24 h, high dose. The procedure:
as §2

The test system of assay [6] is caspase-9 activity in LNCaP cells. Description: Caspase colorimetric protease assay. In kind it is cell-based, human. The conditions noted are these: 24 h. The protocol:
as §2

Assay [7] deals with caspase-9 activity in PC-3 cells. Kind of assay: Caspase colorimetric protease assay. The class given is cell-based, human. The conditions noted are these: PC-3, 10, 20 and 40 μM, 24 h. The procedure:
as §2

Assay [8] deals with AR gene expression in LNCaP cells. Kind of assay: RT-PCR of AR expression. In kind it is cell-based, human. The conditions noted are these: for reduction of DHT induced AR transcription: 10 nM DHT. The protocol:
Total RNA was extracted from the treated cells using RNA isolation kit obtained from Genei (Bangalore, India). The extracted RNA samples were then quantified and equal amount of the individual treatments was transcribed with the help of an RT - PCR kit from Genei (Bangalore, India) according to the manufacturer’s instruction. PCR was performed by denaturing at 94°C for 60 s, annealing at various temperatures (depending on primer pairs used) for 45 s and extension at 72°C for 2 min followed by the number of cycles for amplification. Primers for Bcl-2, Bcl-xL, Bax, AR and β-Actin were designed with the help of Primer 3 software and standardized in the laboratory. The PCR products were then separated on 2% agarose gel and visualized in a gel documentation system (Bio Rad, USA). The intensity of the bands on agarose gels were analyzed using ImageJ 1.43 software (NIH, USA) and normalized with respect to β-actin PCR products. Each of the RT-PCR was carried out three times. Table S1 presents the primer sequence, product size, annealing temperature, and number of cycles used for all primers.

Another assay deals with AR in LNCaP cells. Description: Immunofluorescence staining of endogenous AR. In kind it is cell-based, human. The conditions noted are these: varying doses of conjugate, 20 μM RESV, DHT. The protocol:
The cells were then incubated with AR rabbit polyclonal antibody diluted 1∶200 in blocking buffer for 1 h at RT. Finally, the cells were washed with PBS and incubated with FITC-labelled anti-rabbit secondary antibody diluted 1∶1000 in blocking buffer for 30 min at room temperature. The cells were then observed under a fluorescence microscope (Zeiss, Axiovert 25, Germany).

Assay [9] addresses T1, AR nuclear localization in LNCaP cells (Homo sapiens, UniProt P10275).
T1 construct: expressed in transfected cells; host or cells: LNCaP and PC-3
Kind of assay: GFP-AR nuclear localization. The class given is cell-based. The note with it: 10 and 20 μM with 10 nM DHT. The procedure: (§3) For localization studies, pEGFP-AR plasmid was transfected to LNCaP and PC-3 cells (300 ng/10^5 cells).

Assay [10] concerns the target T2, AR nuclear localization in PC-3 cells (Homo sapiens, UniProt P10275).
T2 construct: expressed in transfected cells; host or cells: LNCaP and PC-3
Kind of assay: GFP-AR nuclear localization. In kind it is cell-based. The conditions noted are these: PC-3, 10 and 20 μM with 10 nM DHT. The protocol: as §3

The subject of assay [11] is LNCaP cells. Description: MTT cell death with/without p53 inhibitor PFT-α. The class given is cell-based, human. The conditions noted are these: 20 and 40 μM conjugate 24 h, 20 μM PFT-α pre-treatment. An excerpt:
Since there was no significant difference in the number of apoptotic cells between conjugate treated LNCaP (wild type p53) and PC-3 (p53 null) cells (p<0.05), it was intriguing to check if p53 has any role in conjugate induced apoptosis of PCa cells. For this study we employed a pharmacological approach using specific wild type p53 inhibitor, pifithrin-α (PFT-α). PFT-α is a small molecule that binds to the DNA binding domain of p53, thereby inhibiting its transcriptional activity. For our experiment the LNCaP cells were pre-treated with 20 μM PFT-α for 2 h prior to the addition of 20 and 40 μM of conjugate for next 24 h. Subsequently the drug treated cells were used to check caspase-3 activity and cell death by immunoblot analysis (Fig. 4A) and MTT assay (Fig. 4B) respectively. […] Next we determined the effect of p53-inhibition on conjugate induced cell death by using MTT assay.

Molecules are shown by their SMILES.

T2 sequence (P10275 whole entry): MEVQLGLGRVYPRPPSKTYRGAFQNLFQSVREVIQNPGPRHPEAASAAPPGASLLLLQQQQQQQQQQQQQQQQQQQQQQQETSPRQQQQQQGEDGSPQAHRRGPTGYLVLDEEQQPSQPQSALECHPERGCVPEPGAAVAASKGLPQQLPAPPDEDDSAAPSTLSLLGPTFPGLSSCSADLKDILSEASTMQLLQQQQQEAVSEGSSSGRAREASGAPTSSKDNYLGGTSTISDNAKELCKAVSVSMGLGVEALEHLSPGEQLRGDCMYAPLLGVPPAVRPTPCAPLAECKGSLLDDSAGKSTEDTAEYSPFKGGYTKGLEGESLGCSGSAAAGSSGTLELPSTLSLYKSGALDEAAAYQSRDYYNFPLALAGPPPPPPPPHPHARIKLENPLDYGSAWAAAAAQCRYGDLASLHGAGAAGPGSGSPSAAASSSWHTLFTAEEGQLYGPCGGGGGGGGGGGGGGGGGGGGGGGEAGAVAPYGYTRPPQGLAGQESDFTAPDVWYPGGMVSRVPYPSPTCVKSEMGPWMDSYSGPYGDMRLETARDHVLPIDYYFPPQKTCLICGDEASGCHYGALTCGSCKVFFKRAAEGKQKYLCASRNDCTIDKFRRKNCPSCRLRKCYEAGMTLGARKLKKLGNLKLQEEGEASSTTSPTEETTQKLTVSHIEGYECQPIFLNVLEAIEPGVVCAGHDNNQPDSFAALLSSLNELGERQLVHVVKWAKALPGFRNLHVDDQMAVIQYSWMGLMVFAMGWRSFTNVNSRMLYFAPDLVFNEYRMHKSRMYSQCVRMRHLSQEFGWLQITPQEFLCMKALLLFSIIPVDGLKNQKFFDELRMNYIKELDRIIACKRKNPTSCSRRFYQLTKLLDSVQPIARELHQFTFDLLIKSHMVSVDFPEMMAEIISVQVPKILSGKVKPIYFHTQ
T1 sequence (P10275 whole entry): as above

For `COc1cc(/C=C/c2ccc(O)c(/C=N/NC(N)=S)c2)cc(OC)c1` [conjugate, Pterostilbene-isothiocyanate conjugate], the “early apoptotic cells (Annexin V positive only, lower right quadrant)” value is given as 52% in the assay on LNCaP cells [1] (20 μM); “about 44%” in the assay on PC-3 cells (PC-3, 20 μM); approximately 68% with PC-3 cells (PC-3, 40 μM). Further, the “late apoptotic cells (Annexin V and PI positive, upper right quadrant)” value in the assay with LNCaP cells [1] (20 μM) amounted to 8%; in the assay with LNCaP cells [1] (40 μM), 18.5%; in the assay with PC-3 cells (PC-3, 20 μM), 12%; in the assay on PC-3 cells (PC-3, 40 μM) it was 16%. In assay [2], the caspase-3 activity entry is given as “significant increase”. In addition, the caspase-3 enzyme activity result in assay [3] is “dose-dependent augmentation”. In addition, the figures for the caspase-8 activity result in assay [4] and in assay [5] were “significant increase” and “no such induction was observed”, respectively. In addition, in [6], the caspase-9 activity entry is “significant increase”. The caspase-9 enzyme activity result in assay [7] was “dose-dependent augmentation”. For the same compound, the “reduction of DHT induced AR transcription” value in [8] (10 μM) is recorded as “about 1.2 fold”; in assay [8] (20 μM), approximately 1.3 fold; in assay [8] (40 μM) it was approximately 1.4 fold. Also, in assay [8] (below 40 μM, absence of 10 nM DHT, RT-PCR), the “effect on expression of AR gene” value is recorded as “no significant effects”. Further, the AR immunofluorescence intensity result in the assay with AR in LNCaP cells is “almost complete abolition of fluorescent intensity”. The “DHT induced nuclear localization of AR” value in assay [9] and in assay [10] was “significantly inhibited” throughout. For the same compound, the “cell death with vs without PFT-α” value with LNCaP cells [11] is listed as “did not differ significantly”.
